The values below are quoted from earlier work in patent publication US20090054381A1, “METHODS FOR TREATING RESPIRATORY DISORDERS” (NitroMed, Inc., priority 2005, published 2009).

Structures can show the parent of a compound that is named as a salt.

As to `O=[N+]([O-])O[C@H]1CO[C@H]2[C@@H]1OC[C@H]2O[N+](=O)[O-]` [Diluted isosorbide dinitrate, 1,4,3,6-dianhydro-D-glucitol-2,5-dinitrate], the solubility in water entry was “sparingly soluble”. In addition, the “solubility in organic solvents” value (organic solvents such as ethanol, ether and chloroform) is reported as “freely soluble”.
As for `NNc1nncc2ccccc12` [Hydralazine hydrochloride, hydralazine hydrochloride], the solubility in water entry is reported as “soluble”. The solubility in alcohol entry (alcohol) was “slightly soluble”. For the same molecule, for the setting “ether”, the solubility in ether entry is reported as “very slightly soluble”.
